This passage reports solubility results from patent US20250099369A1, “TOPICAL DELIVERY COMPOSITIONS COMPRISING NON-STEROIDAL ANTI-INFLAMMATORY DRUGS” (Andros Pharmaceuticals Co., LTD., priority 2023, published 2025).

The nature of the data set: physchem. Type of data set: physicochemical. The following applies: 25 °C, aqueous buffer, thermodynamic from solid, Diclofenac Solubility. On the procedure:
In the aqueous solution containing 1% boric acid, add SPC (0%, 1%, 3%, 5%, 8%, 10%, 13%, 15%, 18%, 20%) and urea (0%, 5%, 10%, 20%, 30%, 40%, 50%) and stir until complete dissolution. A total of 70 sample solutions with different SPC and urea concentrations were obtained.
An excess of diclofenac sodium was added to each set of sample solutions and stirred overnight at 25° C. The sample solution was centrifuged at 12,000 rpm for 5 minutes, and a portion of the supernatant was diluted with appropriate diluent and analyzed by HPLC, to determine the solubility of diclofenac sodium in aqueous solutions containing different concentrations of SPC and urea. The results are presented in Table1.

Each structure is given as a SMILES string.

For the compound `O=C(O)Cc1ccccc1Nc1c(Cl)cccc1Cl` [diclofenac sodium], the solubility (in general, the concentration that dissolves in the medium under given conditions) was 19.7 mg/mL.
